Experimental data from PubChem BioAssay AID608 (Sanford-Burnham Center for Chemical Genomics, 2007).
Activity calls are given as the source filed them. No rule for the calls is given here.

target: Peptidyl-prolyl cis-trans isomerase FKBP1A (Homo sapiens) (UniProt P62942); test: FKBP12 binders, biophysical, NMR detection (AID 608); details: NMR binding, purified FKBP12
Sequence (P62942 whole entry, looked up): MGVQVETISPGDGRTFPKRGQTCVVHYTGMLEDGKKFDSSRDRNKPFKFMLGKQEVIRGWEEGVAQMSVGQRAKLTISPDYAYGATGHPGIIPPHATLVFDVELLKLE

Row | Compound | Kd
1 | NCc1ccc(S(=O)(=O)O)cc1 | > 4 mM (inactive)
2 | O=C(O)c1ccnn1-c1ccccc1 | > 4 mM (inactive)
3 | C=C1CSc2nc(=O)c3c(C)c(C)sc3n21 | > 4 mM (inactive)
4 | CC(=O)Nc1ccn(Cc2c(F)cccc2Cl)n1 | > 4 mM (inactive)
5 | COc1ccccc1-c1nc(=S)[nH][nH]1 | > 4 mM (inactive)
6 | COc1cccc(=O)c2c(C)n(C)c(C)c12 | > 4 mM (inactive)
7 | CC(=O)N/N=C(\C)c1cccc(N)c1 | > 4 mM (inactive)
8 | O=C(O)C1COc2ccccc2O1 (stereo not given) | > 4 mM (inactive)
9 | O=c1c2ccccc2nc(-c2ccco2)n1-c1nccs1 | > 4 mM (inactive)
10 | COc1cc2c(cc1OC)[C@@H]1C(=O)c3ccc4oc(C(C)C)cc4c3O[C@@H]1CO2 | > 4 mM (inactive)
11 | OCc1ccc(OC(F)(F)F)cc1 | > 4 mM (inactive)
12 | CC(=O)NCC1(c2ccccc2)CCOCC1 | > 4 mM (inactive)
13 | O=S(=O)(Nc1cc(Cl)cc(Cl)c1)N1CCCCC1 | inactive
14 | Cc1cc2ncc(C(=O)O)c(C)n2n1 | > 4 mM (inactive)
15 | c1ccc2c(c1)nc(-c1cscn1)n2Cc1ccc(-c2nn[nH]n2)cc1 | inactive
16 | COc1cccc(NC(=O)c2ncn[nH]2)c1 | > 4 mM (inactive)
17 | O=C(CSc1nc2ccccc2[nH]1)N1CCCCC1 | > 4 mM (inactive)
18 | O=C1c2cccc3cc(S(=O)(=O)O)cc(c23)C(=O)N1O | > 4 mM (inactive)
19 | CN1CCC(N2CCOCC2)CC1 | > 4 mM (inactive)
20 | OC1(c2ccc(Cl)cc2)CCNCC1 | > 4 mM (inactive)
21 | CC(=O)Nc1ccc(-c2nc(C)c(C(C)=O)n2O)cc1 | > 4 mM (inactive)
22 | O=C(C1CCNCC1)N1CCCCCC1 | > 4 mM (inactive)
23 | O=C(Nc1ccc2c(c1)OCCO2)c1ccncc1 | > 4 mM (inactive)

Row | Compound | Kd
24 | C/C=C/C=N/NC(=O)c1ccc(=O)n(C)c1 | > 4 mM (inactive)
25 | Cn1c(=O)cc(N2CCCCC2)[nH]c1=O | > 4 mM (inactive)
26 | CC(C)C(=O)NC(=S)N1CCOCC1 | > 4 mM (inactive)
27 | O=C1c2cccnc2C(=O)N1Cc1ccc2c(c1)OCO2 | > 4 mM (inactive)
28 | CC(C)(C)CC(=O)N1CCC(C(N)=O)CC1 | > 4 mM (inactive)
29 | CN1CCC(NC(=O)Cc2c(F)cccc2Cl)CC1 | > 4 mM (inactive)
30 | CCc1noc(C)c1C(=O)N1CCCC1 | > 4 mM (inactive)
31 | Cc1cc(C(=O)N2CCC3(CC2)OCCO3)cs1 | > 4 mM (inactive)
32 | O=C(O)c1csc(-c2cccnc2)n1 | > 4 mM (inactive)
33 | S=c1oc(-c2ccncc2)nn1CCc1ccncc1 | inactive
34 | O=[N+]([O-])c1ccc(NS(=O)(=O)N2CCCCC2)cc1 | 0.06 mM
35 | Nc1nnc(C(F)(F)F)s1 | > 4 mM (inactive)
36 | Nc1nc(N)nc(N2C(=O)c3ccccc3C2=O)n1 | > 4 mM (inactive)
37 | COC(=O)C1COCCN1C(=O)CSc1ccc(C(C)C)cc1 (stereo not given) | 0.0003 mM
38 | Cc1cc(C(=O)Nc2sc(C)c(C)c2C#N)no1 | > 4 mM (inactive)
39 | CC(=O)Nc1cnn(Cc2ccc(Br)cc2)c1 | > 4 mM (inactive)
40 | CC12CN(CC#N)CC(C)(CN(CC#N)C1)C2=O | > 4 mM (inactive)
41 | Cc1cc(C)nc(NC(N)=NCc2ccco2)n1 | > 4 mM (inactive)
42 | CCC1=Nc2ccccc2-c2nnc(SC)nc2O1 | > 4 mM (inactive)
43 | CC(=O)O[C@@H]1CC2C(C)(C)C(=O)C3OC3[C@]2(C)C2CC[C@@]3(C)[C@H](c4ccoc4)OC(=O)C4OC43[C@@]21C (stereo not given in full) | > 4 mM (inactive)
44 | CC(O)C(=O)N/N=C/c1ccccc1 (stereo not given) | > 4 mM (inactive)
45 | CCNCC(O)c1ccc([N+](=O)[O-])cc1 (stereo not given) | > 4 mM (inactive)
46 | CC(=O)Nc1ccc(C(=O)n2nc(C)cc2C)cc1 | > 4 mM (inactive)

Row | Compound | Kd
47 | CCn1nccc1C(=O)Nc1ccc(Cl)cc1Cl | > 4 mM (inactive)
48 | CNC(=O)c1ccccc1N | > 4 mM (inactive)
49 | COc1cc2c(cc1OC)C(C)NCC2 (stereo not given) | > 4 mM (inactive)
50 | Cc1ccc(C(C)C)c(OCCNC(=O)c2ccccc2OCC(=O)N2CCOCC2)c1 | inactive
51 | COc1ccc(-c2ccc(OC)cc2C(=O)O)cc1 | > 4 mM (inactive)
52 | CSc1ccc2nnc(-c3cccnc3)n2n1 | > 4 mM (inactive)
53 | C=CCSCC=C | > 4 mM (inactive)
54 | Cc1ccc(C)n1CCN1CCNCC1 | > 4 mM (inactive)
55 | Cc1cc(C(=O)Nc2ccc3c(c2)OCCO3)c(C)o1 | > 4 mM (inactive)
56 | O=C(CSc1cccc2cccnc12)N1CCCC1 | > 4 mM (inactive)
57 | O=S(=O)(N1CCOCC1)n1c(Cc2ccccc2)nc2ccccc21 | inactive
58 | O=c1/c(=C/c2ccccc2F)sc2ncnn12 | > 4 mM (inactive)
59 | COc1ccc(-c2nc(N)n(C(C)=O)n2)cc1 | > 4 mM (inactive)
60 | NC(=O)CC1Sc2ccccc2NC1=O (stereo not given) | > 4 mM (inactive)
61 | Oc1ccccc1C(=S)N1CCCCCC1 | > 4 mM (inactive)
62 | OC1CCN(Cc2ccc[nH]2)CC1 | > 4 mM (inactive)
63 | NC(=O)c1c(Cl)nsc1-c1ccccc1Cl | > 4 mM (inactive)
64 | CSc1nc(-c2ccccc2)ccc1C(N)=O | > 4 mM (inactive)
65 | COC(=O)C1=C(C)N(c2cccc(C(C)=O)c2)C(=O)C1 | > 4 mM (inactive)
66 | COc1cc2c(cc1OC)C(=O)OC2 | > 4 mM (inactive)
67 | O=C(NCc1ccccc1)c1cnsn1 | > 4 mM (inactive)
68 | Cc1ccc(-c2nc(N)n(C(=O)c3cccnc3)n2)cc1 | > 4 mM (inactive)
69 | COc1ccc(N2CC(=O)NC2=O)cc1 | > 4 mM (inactive)

Row | Compound | Kd
70 | CCSc1nc2ccccc2n1CC(N)=O | > 4 mM (inactive)
71 | CC(C)c1ccc(SCC(=O)O)cc1 | > 4 mM (inactive)
72 | O=C(Nc1cnccn1)c1ccncc1 | > 4 mM (inactive)
73 | Cc1occc1C(=O)NC1CCN(C)CC1 | > 4 mM (inactive)
74 | NC(=O)CSc1nnnn1-c1ccccc1 | > 4 mM (inactive)
75 | CSc1nc(-c2ccco2)nn1S(C)(=O)=O | > 4 mM (inactive)
76 | Cc1c(N=CN2CCOCC2)c(=O)n(C)c(=O)n1C | > 4 mM (inactive)
77 | Cc1ccn(S(=O)(=O)c2ccc(C(C)(C)C)cc2)n1 | > 4 mM (inactive)
78 | Cc1cc(C(=O)NCc2ccco2)cs1 | > 4 mM (inactive)
79 | NC(=O)C1CCN(c2ncnc(N)c2[N+](=O)[O-])CC1 | > 4 mM (inactive)
80 | NC(=O)c1ccccc1NC(=O)C1CC1 | > 4 mM (inactive)
81 | Cc1nc2sccn2c1C(=O)O | > 4 mM (inactive)
82 | C[n+]1cccc(C(=O)[O-])c1 | > 4 mM (inactive)
83 | CCCS(=O)(=O)N1CCN(c2ccccc2F)CC1 | > 4 mM (inactive)
84 | CC1=NN(C(N)=S)C(C)(C)C1 | > 4 mM (inactive)
85 | Cc1nc(-c2ccccc2)ncc1CO | > 4 mM (inactive)
86 | Cc1ccc2c(c1)CCCN2C(=O)c1c(C)noc1C | > 4 mM (inactive)
87 | O=C1Nc2ccccc2C1C1(O)C(=O)Nc2ccc(F)cc21 (stereo not given) | > 4 mM (inactive)
88 | CC1CN(C(=O)c2sc3ccccc3c2Cl)CC(C)O1 (stereo not given) | inactive
89 | Cn1cccc1C(=S)N1CCOCC1 | > 4 mM (inactive)
90 | CN1C2CC(OC(=O)[C@H](CO)c3ccccc3)C[C@H]1[C@H]1OC21 (stereo not given in full) | > 4 mM (inactive)
91 | O=C1NC(=Nc2ccccc2)S/C1=C/c1cccnc1 | > 4 mM (inactive)
92 | O=S1(=O)CCC(NC(=S)N2CCOCC2)C1 (stereo not given) | 0.0474 mM

Row | Compound | Kd
93 | Cc1ncoc1C(=O)Nc1ncc([N+](=O)[O-])s1 | > 4 mM (inactive)
94 | COCC(=O)Nc1ccc(C)c(Cl)c1 | > 4 mM (inactive)
95 | CNC(=O)c1cccc(NC(=S)NC)c1 | > 4 mM (inactive)
96 | Cc1cc(NC(=O)Cc2cccs2)no1 | > 4 mM (inactive)
97 | CNC(=O)c1ccccc1-c1ccccc1 | > 4 mM (inactive)
98 | CCCn1cnn2c(=O)cc(C)nc12 | > 4 mM (inactive)
99 | O=C(COc1ccc(S(=O)(=O)NC2CCCC2)cc1)N1CCOCC1 | inactive
100 | COc1ccc(-c2cc(=O)c3c(O)cc(O[C@@H]4O[C@H](CO[C@H]5O[C@H](C)[C@@H](O)[C@H](O)[C@@H]5O)[C@@H](O)[C@H](O)[C@H]4O)cc3o2)cc1O | > 4 mM (inactive)
101 | N#CCSc1nc2ccccc2c(=O)n1-c1ccccc1 | > 4 mM (inactive)
102 | Cc1ccc(SCCN2C(=O)NC(C)(C)C2=O)cc1 | 0.27 mM
103 | COc1cc(OC)c2c(=O)c(-c3ccccc3)coc2c1 | > 4 mM (inactive)
104 | c1cncc(Cn2cccc2)c1 | > 4 mM (inactive)
105 | CN1CCN(C(=O)Nc2cccc3ccccc23)CC1 | > 4 mM (inactive)
106 | COc1ccc(-c2cc(=O)c3c(O)c(OC)c(O[C@H]4O[C@H](CO[C@@H]5O[C@@H](C)[C@H](O)[C@@H](O)[C@H]5O)[C@@H](O)[C@H](O)[C@H]4O)cc3o2)cc1 | > 4 mM (inactive)
107 | CC(=O)Oc1ccc2c(c1OC(C)=O)OCC1(O)Cc3c(cc(OC(C)=O)c(OC(C)=O)c3OC(C)=O)C21 (stereo not given) | > 4 mM (inactive)
108 | NC(=O)CN1C(=O)c2cccc3cccc1c23 | > 4 mM (inactive)
109 | Cc1noc(C)c1C(=O)Nc1ccccc1-c1ccccc1 | > 4 mM (inactive)
110 | CC(=O)c1sc(NC(=O)C=C(C)C)nc1C | > 4 mM (inactive)
111 | COc1cc2c3cc1Oc1c(OC)c(OC)cc4c1[C@@H](Cc1cccc(c1)Oc1ccc(c(O)c1)C[C@@H]3N(C)CC2)N(C)CC4 | > 4 mM (inactive)
112 | CC1=C(CCC(=O)O)c2cc3nc(cc4[nH]c(cc5[nH]c(cc1n2)c(C)c5C(C)O)c(C)c4C(C)O)C(C)=C3CCC(=O)O (stereo not given) | > 4 mM (inactive)
113 | CC(=O)OCc1cc(=O)n(C)c(=O)n1C | > 4 mM (inactive)
114 | COc1cc2c(cc1OC)[C@@H]1C(=O)c3ccc(OC)c(CC=C(C)C)c3O[C@@H]1CO2 | > 4 mM (inactive)
115 | C[C@H]1O[C@@H](O[C@H]2[C@@H](O)C[C@H](O[C@H]3[C@@H](O)C[C@H](O[C@H]4CC[C@]5(C)C6CC[C@]7(C)[C@@H](C8=CC(=O)OC8)CC[C@]7(O)C6CC[C@@H]5C4)O[C@@H]3C)O[C@@H]2C)C[C@H](O)[C@@H]1O (stereo not given in full) | > 4 mM (inactive)
